Patent EP4656642A1, “ESTROGEN RECEPTOR PROTEOLYSIS TARGETING CHIMERA COMPOUND AND USE THEREOF” (GAN & LEE PHARM CO., LTD, priority 2023, dated 2024)

Key:
Type in all cases: cell-based
MCF-7 cells = assay: Inhibition of cell proliferation of MCF-7 cells (CCK-8, 9 days); conditions: treated for 9 days, CCK-8 kit (Table 6)
Procedure, shortened: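 Read-out was CCK-8 viability after 9-day continuous exposure (37°C, 5% CO2) of MCF-7 cells plated at 800/well in 10% FBS DMEM across several compound concentrations. Values are proliferation IC50s.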

ERα [1] = biological target: T1, ERα (Homo sapiens, UniProt P03372); assay: Degradation of ERα in T-47D cells (immunoblotting, 4 h); set-up: host or cells: T-47D
T1 sequence (P03372 1-595): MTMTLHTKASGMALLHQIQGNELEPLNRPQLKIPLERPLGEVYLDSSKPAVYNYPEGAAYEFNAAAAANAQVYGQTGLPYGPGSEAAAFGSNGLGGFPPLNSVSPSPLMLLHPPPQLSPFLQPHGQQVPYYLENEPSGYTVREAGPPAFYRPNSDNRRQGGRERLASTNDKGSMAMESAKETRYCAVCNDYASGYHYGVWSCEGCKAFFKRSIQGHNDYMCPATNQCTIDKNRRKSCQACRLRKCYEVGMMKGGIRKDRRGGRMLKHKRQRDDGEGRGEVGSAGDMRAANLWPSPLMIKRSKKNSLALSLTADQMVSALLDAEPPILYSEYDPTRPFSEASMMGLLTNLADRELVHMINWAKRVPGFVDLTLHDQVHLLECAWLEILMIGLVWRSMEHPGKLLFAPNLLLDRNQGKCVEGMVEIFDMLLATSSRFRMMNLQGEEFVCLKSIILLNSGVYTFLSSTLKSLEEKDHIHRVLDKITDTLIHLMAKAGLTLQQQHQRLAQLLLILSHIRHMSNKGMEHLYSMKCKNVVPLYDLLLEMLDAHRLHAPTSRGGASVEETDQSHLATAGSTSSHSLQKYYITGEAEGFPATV
Procedure, shortened: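 ERα protein levels were assessed by immunoblot of RIPA lysates (with protease inhibitor) after 4 h exposure at 37°C. Compound was added in DMSO to T-47D cells at final concentrations of 0.15-1000 nM.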

T-47D cells = assay: Inhibition of cell proliferation in T-47D cells (CCK-8, 6 days); conditions: 6 days of treatment, Table 3
Procedure, shortened: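 Viability read-out was CCK-8 after 6 days of compound treatment (37 °C, 5% CO2) across graded concentrations. Cells were T-47D seeded at 3,000 per well in 1640 medium plus 10% FBS. IC50 was calculated against proliferation.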

ERα [2] = biological target: T1, ERα; assay: Degradation of ERα in MCF-7 cells (immunoblotting, 4 h)
Procedure, shortened: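 Degradation rate reflects ERα band intensity, corrected to an internal reference protein, relative to control. Values come from Western blotting of lysates from MCF-7 cells exposed 4 h at 37°C to compounds at final concentrations of 0.15-1000nM.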

| SMILES | IC50 (MCF-7 cells) | Degradation rate (%) of ERα in T-47D cells (ERα [1]; 1nM compound) | Degradation rate (%) of ERα in T-47D cells (ERα [1]; 10nM compound) | IC50 (T-47D cells) | Degradation rate (%) of ERα in MCF-7 cells (ERα [2]; 1nM compound) | Degradation rate (%) of ERα in MCF-7 cells (ERα [2]; 10nM compound) |
| --- | --- | --- | --- | --- | --- | --- |
| O=C1CCC(N2Cc3c(ccc4c3OCC43CCN(C4CCC(Oc5ccc([C@@H]6c7ccc(O)cc7CC[C@@H]6c6ccccc6)cc5)CC4)CC3)C2=O)C(=O)N1 (stereo partly drawn) [H12] | 35.5 nM | -1% | 11% | 15.9 nM | 4% | 28% |
| O=C1CCC(N2Cc3c(ccc4c3OCC43CCN(C(=O)CC4CCN(c5ccc([C@@H]6c7ccc(O)cc7CC[C@@H]6c6ccccc6)cc5)CC4)CC3)C2=O)C(=O)N1 (stereo partly drawn) [H16] | 9770 nM | 48% | 69% | 5.7 nM | 9% | 37% |
| O=C1CCC(N2Cc3c(ccc4c3OCC43CCN(C(=O)C4CCC(N5CCN(c6ccc([C@@H]7c8ccc(O)cc8CC[C@@H]7c7ccccc7)cc6)CC5)CC4)CC3)C2=O)C(=O)N1 (stereo partly drawn) [H17] | 62.7 nM | 61% | 68% | 1.02 nM | 47% | 54% |
| O=C1CCC(N2Cc3c(ccc4c3OCC43CCN(CC(=O)N4CCN(c5ccc([C@@H]6c7ccc(O)cc7CC[C@@H]6c6ccccc6)cc5)CC4)CC3)C2=O)C(=O)N1 (stereo partly drawn) [H18] | 7380 nM | 69% | 57% | 1.55 nM | 18% | 58% |
| O=C1CCC(N2Cc3c(ccc4c3OCC43CCN(CC(=O)N4CCC5(CCN(c6ccc([C@@H]7c8ccc(O)cc8CC[C@@H]7c7ccccc7)cc6)C5)C4)CC3)C2=O)C(=O)N1 (stereo partly drawn) [H19] | 151 nM | 39% | 55% | 1.8 nM | 27% | 21% |
| O=C1CCC(N2Cc3c(ccc4c3OCC43CCN(CCN4CCN(c5ccc([C@@H]6c7ccc(O)cc7CC[C@@H]6c6ccccc6)cc5)CC4)CC3)C2=O)C(=O)N1 (stereo partly drawn) [H20] | 1320 nM | 13% | -14% | 1.22 nM | -18% | -14% |
| O=C1CCC(N2Cc3c(ccc4c3OCC43CCN(C(=O)CN4CC[C@]5(CCN(c6ccc([C@@H]7c8ccc(O)cc8CC[C@@H]7c7ccccc7)cc6)C5)C4)CC3)C2=O)C(=O)N1 (stereo partly drawn) [H21] | 163 nM | 35% | 65% | 1.02 nM | 18% | 37% |
| O=C1CCC(N2Cc3c(ccc4c3OCC43CCN(C(=O)C4CCN(C5CCN(c6ccc([C@@H]7c8ccc(O)cc8CC[C@@H]7c7ccccc7)cc6)CC5)CC4)CC3)C2=O)C(=O)N1 (stereo partly drawn) [H22] | 3.5 nM | 56% | 73% | 1.57 nM | 32% | 64% |
| O=C1CCC(N2Cc3c(ccc4c3OCC43CCN(CC(=O)N4CC[C@]5(CCN(c6ccc([C@@H]7c8ccc(O)cc8CC[C@@H]7c7ccccc7)cc6)C5)C4)CC3)C2=O)C(=O)N1 (stereo partly drawn) [H23] | 9.19 nM | 50% | 68% | 1.58 nM | 44% | 51% |
| O=C1CCC(N2Cc3cc4c(cc3C2=O)OC2(CC4)CN(C3CC4(C3)CC3(CCN(c5ccc([C@@H]6c7ccc(O)cc7CC[C@@H]6c6ccccc6)cc5)CC3)C4)C2)C(=O)N1 (stereo partly drawn) [H25] | 1720 nM | 23% | 48% | 6.02 nM | -9% | -50% |
| O=C1CCC(N2C(=O)c3ccc4c(c3C2=O)OCC42CCN(C3CCN(C(=O)C4CCN(c5ccc([C@@H]6c7ccc(O)cc7CC[C@@H]6c6ccccc6)cc5)CC4)CC3)CC2)C(=O)N1 (stereo partly drawn) [H27] | 800 nM | 36% | 78% | 4.65 nM | 11% | 46% |
| C[C@@H]1C[C@H](N2CCC3(CC2)COc2c3ccc3c2CN(C2CCC(=O)NC2=O)C3=O)CCN1C(=O)C1CCN(c2ccc([C@@H]3c4ccc(O)cc4CC[C@@H]3c3ccccc3)cc2)CC1 (stereo partly drawn) [H28] | 8.41 nM | 62% | 83% | 1.01 nM | 36% | 65% |
| C[C@@H]1C[C@H](N2CCC3(CC2)COc2c3ccc3c2CN(C2CCC(=O)NC2=O)C3=O)CCN1C1CC2(CCN(c3ccc([C@@H]4c5ccc(O)cc5CC[C@@H]4c4ccccc4)cc3)CC2)C1 (stereo partly drawn) [H30] | 0.115 nM | 37% | 74% | 5.78 nM | -1% | 62% |
| COC(=O)[C@@H]1C[C@H](N2CCC3(CC2)COc2c3ccc3c2CN(C2CCC(=O)NC2=O)C3=O)CCN1C1CC2(CCN(c3ccc([C@@H]4c5ccc(O)cc5CC[C@@H]4c4ccccc4)cc3)CC2)C1 (stereo partly drawn) [H31] | 43.3 nM | 55% | 85% | 1.8 nM | 46% | 83% |
| COC(=O)[C@@H]1C[C@H](N2CCC3(CC2)COc2c3ccc3c2CN(C2CCC(=O)NC2=O)C3=O)CCN1C1CCN(c2ccc([C@@H]3c4ccc(O)cc4CC[C@@H]3c3ccccc3)cc2)CC1 (stereo partly drawn) [H32] | 4020 nM | 52% | 77% | 1.44 nM | 35% | 58% |
| O=C1CCC(N2Cc3c(ccc4c3OCC43CCN(C4CCN(C5CC6(CCN(c7ccc([C@@H]8c9ccc(O)cc9CC[C@@H]8c8ccccc8)cc7)CC6)C5)CC4F)CC3)C2=O)C(=O)N1 (stereo partly drawn) [H33] | 12.5 nM | 27% | 72% | 1.37 nM | 32% | 76% |
| O=C1CCC(N2Cc3c(ccc4c3OCC43CCN(C4CCN(C5CCN(c6ccc([C@@H]7c8ccc(O)cc8CC[C@@H]7c7ccccc7)cc6)CC5)CC4F)CC3)C2=O)C(=O)N1 (stereo partly drawn) [H34] | 10.9 nM | 30% | 77% | 1.33 nM | 42% | 65% |
| O=C1CCC(N2Cc3c(ccc4c3OCC43CCN([C@H]4CCN(C5CC6(CCN(c7ccc([C@@H]8c9ccc(O)cc9CC[C@@H]8c8ccccc8)cc7)CC6)C5)C[C@H]4F)CC3)C2=O)C(=O)N1 (stereo partly drawn) [H36] | 72.4 nM | 21% | 75% | 1.06 nM | 24% | 70% |
| CNC(=O)[C@@H]1CC(N2CCC3(CC2)COc2c3ccc3c2CN(C2CCC(=O)NC2=O)C3=O)CCN1C1CC2(CCN(c3ccc([C@@H]4c5ccc(O)cc5CC[C@@H]4c4ccccc4)cc3)CC2)C1 (stereo partly drawn) [H38] | 31.8 nM | 34% | 75% | 2.58 nM | 49% | 71% |
| C[C@H]1CN(C2CC3(CCN(c4ccc([C@@H]5c6ccc(O)cc6CC[C@@H]5c5ccccc5)cc4)CC3)C2)CC[C@H]1N1CCC2(CC1)COc1c2ccc2c1CN(C1CCC(=O)NC1=O)C2=O (stereo partly drawn) [H39] | 65.2 nM | 15% | 64% | 3.38 nM | 20% | 71% |
